According to US12054498B2, “Heteroaromatic macrocyclic ether chemotherapeutic agents” (Nuvalent, Inc., priority 2020, dated 2024):

Key:
ALK-wt = target: T1, ALK-wt (Homo sapiens, UniProt Q9UM73); assay: Biochemical kinase assay, ALK-wt kinase domain; conditions: apparent inhibitory constant, Morrison equation; ATP 2 mM in substrate solution; read-out: ALK-wt Ki^app
T1 construct: purchased Carna 08-518
Summary of the method: (§1)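 Apparent Ki values come from fitting initial reaction rates against inhibitor concentration to the Morrison equation. Rates were taken from the linear phase of fluorogenic substrate phosphorylation (AQT0101 for ALK and ROS1, AQT0104 for TRKA; 26 μM in substrate solution with 2 mM ATP), monitored at 485 nm over 120 min at 30° C.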

ALK L1196M/G1202R = target: T2, ALK L1196M/G1202R (Homo sapiens, UniProt Q9UM73, G1202R/L1196M); assay: Biochemical kinase assay, ALK L1196M/G1202R kinase domain; conditions: apparent inhibitory constant, Morrison equation; ATP 2 mM in substrate solution; read-out: ALK-L1196M-G1202R Ki^app
T2 construct: purchased SignalChem A19-12NG
T2 sequence (Q9UM73 1116-1392 L1196M/G1202R limits assumed): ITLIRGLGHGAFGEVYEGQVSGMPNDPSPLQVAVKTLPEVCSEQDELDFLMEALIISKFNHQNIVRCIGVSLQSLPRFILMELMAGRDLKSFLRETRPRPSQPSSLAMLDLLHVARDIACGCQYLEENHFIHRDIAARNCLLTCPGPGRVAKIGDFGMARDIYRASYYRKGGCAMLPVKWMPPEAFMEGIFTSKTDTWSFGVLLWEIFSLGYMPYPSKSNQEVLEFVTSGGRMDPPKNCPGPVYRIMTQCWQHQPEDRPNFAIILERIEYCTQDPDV
Summary of the method: as §1

ROS1-wt = target: T3, ROS1-wt (Homo sapiens, UniProt P08922); assay: Biochemical kinase assay, ROS1-wt kinase domain; conditions: apparent inhibitory constant, Morrison equation; ATP 2 mM in substrate solution; read-out: ROS1-wt Ki^app
T3 construct: purchased Carna 08-163
T3 sequence (P08922 1945-2222 limits assumed): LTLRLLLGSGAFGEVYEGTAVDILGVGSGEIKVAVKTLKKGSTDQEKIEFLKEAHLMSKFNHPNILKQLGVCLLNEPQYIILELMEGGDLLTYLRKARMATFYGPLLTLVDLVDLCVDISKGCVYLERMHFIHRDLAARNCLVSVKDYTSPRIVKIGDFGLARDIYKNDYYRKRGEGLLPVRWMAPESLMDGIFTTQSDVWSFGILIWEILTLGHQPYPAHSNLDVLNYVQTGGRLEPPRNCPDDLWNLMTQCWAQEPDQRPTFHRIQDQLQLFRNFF
Summary of the method: (§2)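 Compounds, as 100-fold DMSO stocks, were dispensed first, then substrate mix was added (ATP 2 mM, AQT0101 26 μM, in 50 mM HEPES pH 7.5/10 mM MgCl2). Reactions ran at 30 °C with fluorescence logged every 2 min over 120 min. Apparent inhibition constants came from fitting rates to Morrison's tight-binding equation.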

ROS1-G2032R = target: T4, ROS1-G2032R (Homo sapiens, UniProt P08922, G2032R); assay: Biochemical kinase assay, ROS1-G2032R kinase domain; conditions: apparent inhibitory constant, Morrison equation; ATP 2 mM in substrate solution; read-out: ROS1-G2032R Ki^app
T4 construct: purchased SignalChem R14-12BG
T4 sequence (P08922 1945-2222 G2032R limits assumed): as the sequence (P08922 1945-2222 limits assumed) above, with G88R counted along it
Summary of the method: as §2

TRKA-wt = target: T5, TRKA-wt (Homo sapiens, UniProt P04629); assay: Biochemical kinase assay, TRKA-wt kinase domain; conditions: apparent inhibitory constant, Morrison equation; ATP 2 mM in substrate solution; read-out: TRKA-wt Ki^app
T5 construct: or TRKA-wt (1 nM, BPS Bio, 40280) kinase domains in buffer; purchased BPS Bio 40280
T5 sequence (P04629 510-781 limits assumed): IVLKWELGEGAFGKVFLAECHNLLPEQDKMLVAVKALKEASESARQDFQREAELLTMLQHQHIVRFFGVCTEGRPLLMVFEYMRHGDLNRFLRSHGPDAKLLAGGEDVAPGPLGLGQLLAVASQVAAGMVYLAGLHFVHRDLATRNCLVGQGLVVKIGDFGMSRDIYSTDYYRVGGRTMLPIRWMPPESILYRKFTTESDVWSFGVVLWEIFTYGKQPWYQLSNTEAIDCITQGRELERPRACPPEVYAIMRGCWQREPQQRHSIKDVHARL
Summary of the method: as §1

[1] = target: T6, Ba/F3 cells CD74-ROS1 wild-type (wt) (Homo sapiens, UniProt P08922); assay: Ba/F3 cell proliferation assay, CD74-ROS1 wild-type; format: cell-based; conditions: 72 hours, CellTiter-Glo
T6 construct: fusion of the C-terminus of ROS1 with the N-terminus of various partner proteins; host or cells: Ba/F3 (RIKEN), retroviral pMSCV-puro; the other entry of the earlier key: CD74 (P04233, HLA class II histocompatibility antigen gamma chain)
T6 sequence (P08922 1883-2347 limits assumed): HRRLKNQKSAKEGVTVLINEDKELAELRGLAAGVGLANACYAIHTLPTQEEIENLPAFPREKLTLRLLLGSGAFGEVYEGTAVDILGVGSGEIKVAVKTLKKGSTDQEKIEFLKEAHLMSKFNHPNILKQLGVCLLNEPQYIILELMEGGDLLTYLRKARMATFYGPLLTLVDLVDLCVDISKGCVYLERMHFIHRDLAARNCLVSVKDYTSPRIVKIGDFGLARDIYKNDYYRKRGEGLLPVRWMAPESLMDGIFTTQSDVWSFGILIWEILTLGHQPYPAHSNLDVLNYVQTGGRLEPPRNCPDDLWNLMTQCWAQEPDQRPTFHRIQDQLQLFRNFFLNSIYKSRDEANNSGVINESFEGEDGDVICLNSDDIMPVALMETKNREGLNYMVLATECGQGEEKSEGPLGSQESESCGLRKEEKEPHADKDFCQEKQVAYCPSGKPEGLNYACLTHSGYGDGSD
Summary of the method: (§3)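 IL-3-independent Ba/F3 CD74-ROS1 lines, puromycin-selected monoclones; 1,000 cells/well, plated 1 d before dosing; 3-fold serial dilutions, 72 h; CellTiter-Glo luminescence; IC50 by 4-parameter logistic regression.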

[2] = target: T7, Ba/F3 cells CD74-ROS1 G2032R (Homo sapiens, UniProt P08922, G2032R); assay: Ba/F3 cell proliferation assay, CD74-ROS1 G2032R; format: cell-based; conditions: 72 hours, CellTiter-Glo
T7 construct: fusion of the C-terminus of ROS1 with the N-terminus of various partner proteins; host or cells: Ba/F3 (RIKEN), retroviral pMSCV-puro; the other entry of the earlier key: CD74 (P04233, HLA class II histocompatibility antigen gamma chain)
T7 sequence (P08922 1883-2347 G2032R limits assumed): as the sequence (P08922 1883-2347 limits assumed) above, with G150R counted along it
Summary of the method: as §3

[3] = target: T8, Ba/F3 cells EML4-ALK wt (variant 1) (Homo sapiens, UniProt Q9UM73); assay: Ba/F3 cell proliferation assay, EML4-ALK wt (variant 1); format: cell-based; conditions: 72 hours, CellTiter-Glo
T8 construct: echinoderm microtubule-associated protein-like 4 (EML4) gene and the ALK tyrosine kinase domain; host or cells: Ba/F3 (RIKEN), retroviral pMSCV-puro; the other entry of the earlier key: EML4 (Q9HC35, Echinoderm microtubule-associated protein-like 4)
T8 sequence (Q9UM73 with tags, fused parts or gaps): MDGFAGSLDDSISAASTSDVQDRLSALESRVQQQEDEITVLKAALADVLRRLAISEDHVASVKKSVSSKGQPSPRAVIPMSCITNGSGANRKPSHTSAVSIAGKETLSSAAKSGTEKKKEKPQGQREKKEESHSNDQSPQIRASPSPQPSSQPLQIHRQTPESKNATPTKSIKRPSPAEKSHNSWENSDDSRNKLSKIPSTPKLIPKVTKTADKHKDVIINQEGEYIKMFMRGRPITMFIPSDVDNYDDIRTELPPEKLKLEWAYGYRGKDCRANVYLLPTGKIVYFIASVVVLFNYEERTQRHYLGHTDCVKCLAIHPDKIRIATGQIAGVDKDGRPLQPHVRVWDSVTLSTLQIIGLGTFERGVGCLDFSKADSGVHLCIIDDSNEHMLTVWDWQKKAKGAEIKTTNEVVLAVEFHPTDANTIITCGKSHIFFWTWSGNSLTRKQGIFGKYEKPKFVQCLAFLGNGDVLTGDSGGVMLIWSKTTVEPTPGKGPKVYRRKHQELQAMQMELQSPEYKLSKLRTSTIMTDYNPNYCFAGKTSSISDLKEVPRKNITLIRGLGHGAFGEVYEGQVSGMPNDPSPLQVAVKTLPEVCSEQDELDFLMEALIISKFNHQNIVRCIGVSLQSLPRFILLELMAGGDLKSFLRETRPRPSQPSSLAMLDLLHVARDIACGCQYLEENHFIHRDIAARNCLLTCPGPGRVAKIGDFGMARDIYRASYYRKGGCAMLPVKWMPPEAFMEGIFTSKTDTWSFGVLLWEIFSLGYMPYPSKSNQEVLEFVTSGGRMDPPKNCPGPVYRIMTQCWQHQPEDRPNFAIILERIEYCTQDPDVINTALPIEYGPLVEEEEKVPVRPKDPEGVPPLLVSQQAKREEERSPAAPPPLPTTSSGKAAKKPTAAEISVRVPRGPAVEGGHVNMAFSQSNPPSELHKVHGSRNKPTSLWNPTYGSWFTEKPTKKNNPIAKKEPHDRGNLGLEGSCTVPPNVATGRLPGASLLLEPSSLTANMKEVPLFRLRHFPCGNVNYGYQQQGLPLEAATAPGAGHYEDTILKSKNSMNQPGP
Summary of the method: (§4)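 Ba/F3 lines stably expressing the fusion (retroviral pMSCV-puro, selected by IL-3 withdrawal plus puromycin 0.8 μg/mL, monoclonal) were seeded at 1,000 cells/well, dosed next day with 3-fold compound dilutions, and incubated 72 hours. CellTiter-Glo luminescence gave percent inhibition; IC50 by four-parameter logistic fit.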

[4] = target: T9, Ba/F3 cells EML4-ALK L1196M/G1202R (variant 1) (Homo sapiens, UniProt Q9UM73, G1202R/L1196M); assay: Ba/F3 cell proliferation assay, EML4-ALK L1196M/G1202R (variant 1); format: cell-based; conditions: 72 hours, CellTiter-Glo
T9 construct: echinoderm microtubule-associated protein-like 4 (EML4) gene and the ALK tyrosine kinase domain; host or cells: Ba/F3 (RIKEN), retroviral pMSCV-puro; the other entry of the earlier key: EML4 (Q9HC35, Echinoderm microtubule-associated protein-like 4)
T9 sequence (Q9UM73 with tags, fused parts or gaps L1196M/G1202R): as the sequence (Q9UM73 with tags, fused parts or gaps) above, with L635M, G641R counted along it
Summary of the method: as §4

Ba/F3 cells TPM3-TRKA = target: T10, Ba/F3 cells TPM3-TRKA (Homo sapiens, UniProt P04629); assay: Ba/F3 cell proliferation assay, TPM3-TRKA; format: cell-based; conditions: 72 hours, CellTiter-Glo, read-out: TPM3-NTRK1-wt IC50
T10 construct: host or cells: Ba/F3 (RIKEN), retroviral pMSCV-puro; the other entry of the earlier key: TPM3 (P06753, Tropomyosin alpha-3 chain)
T10 sequence (P04629 510-796 limits assumed): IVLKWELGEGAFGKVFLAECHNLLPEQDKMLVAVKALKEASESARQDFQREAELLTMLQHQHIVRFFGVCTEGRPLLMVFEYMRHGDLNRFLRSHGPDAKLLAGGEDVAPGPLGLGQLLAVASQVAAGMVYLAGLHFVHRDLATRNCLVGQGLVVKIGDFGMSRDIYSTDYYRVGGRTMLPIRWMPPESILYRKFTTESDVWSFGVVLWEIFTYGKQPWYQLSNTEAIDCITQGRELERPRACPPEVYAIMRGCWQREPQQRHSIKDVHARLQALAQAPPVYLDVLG
Summary of the method: as §4

[5] = tested on: TPM3-NTRK1-wt IC50 / primary target IC50 (e.g. CD74-ROS1-wt); assay: TRKA selectivity in Ba/F3 cells (TRKA potency divided by primary target potency); format: cell-based; conditions: for TPM3-NTRK1-wt/CD74-ROS1-G2032R selectivity ratio: TRKA potency / CD74-ROS1-G2032R potency; for TPM3-NTRK1-wt/CD74-ROS1-wt selectivity ratio: TRKA potency / CD74-ROS1-wt potency; for TPM3-NTRK1-wt/EML4-ALK-L1196M-G1202R selectivity ratio: TRKA potency / EML4-ALK-L1196M-G1202R potency; for TPM3-NTRK1-wt/EML4-ALK-wt selectivity ratio: TRKA potency / EML4-ALK-wt potency
Description: TRKA selectivity was calculated by dividing a compound's TRKA potency by its primary target potency (e.g. TPM3-NTRK1-wt IC50/CD74-ROS1-wt IC50). Compound selectivity can be interpreted by binning ratio values: bin A for very high selectivity, ratio >30-fold; bin B for high selectivity, ratio >10-fold; bin C for moderate selectivity, ratio ≥1; and bin D for low selectivity, ratio <1. […] (nd=not determined).

T1 sequence (Q9UM73 1116-1392 limits assumed): as the sequence (Q9UM73 1116-1392 L1196M/G1202R limits assumed) above, with M81L, R87G counted along it

Row | Compound | Ki (ALK-wt) [nM] | Ki (ALK L1196M/G1202R) [nM] | Ki (ROS1-wt) [nM] | Ki (ROS1-G2032R) [nM] | Ki (TRKA-wt) [nM] | IC50 [1] [nM] | IC50 [2] [nM] | IC50 [3] [nM] | IC50 [4] [nM] | IC50 (Ba/F3 cells TPM3-TRKA) [nM] | TPM3-NTRK1-wt/CD74-ROS1-G2032R selectivity ratio [5] | TPM3-NTRK1-wt/CD74-ROS1-wt selectivity ratio [5] | TPM3-NTRK1-wt/EML4-ALK-L1196M-G1202R selectivity ratio [5] | TPM3-NTRK1-wt/EML4-ALK-wt selectivity ratio [5]
1 | C[C@H]1Oc2cc(cnc2N)-c2c(nnn2CC2CC2)Cc2nn(C)nc2-c2ccc(F)cc21 [Example 51, (19R)-3-(cyclopropylmethyl)-16-fluoro-10,19-dimethyl-20-oxa-3,4,5,9,10,11,23-heptaazapentacyclo[19.3.1.0^2,^6.0^8,^12.0^13,^18]pentacosa-1(24),2(6),4,8,11,13,15,17,21(25),22-decaen-22-amine] | < 50 | < 50 | < 50 | < 50 | > 500 | 0.1 to 50 | 0.1 to 50 | 0.1 to 50 | 0.1 to 50 | > 500 | A (bin A for very high selectivity, ratio >30-fold) | A (bin A for very high selectivity, ratio >30-fold) | A (bin A for very high selectivity, ratio >30-fold) | A (bin A for very high selectivity, ratio >30-fold)
2 | C[C@H]1Oc2cc(cnc2N)-c2c(c(Cl)nn2CC(F)F)Cc2nn(C)nc2-c2ccc(F)cc21 [Example 60, (19R)-5-chloro-3-(2,2difluoroethyl)-16-fluoro-10,19-dimethyl-20-oxa-3,4,9,10,11,23-hexaazapentacyclo[19.3.1.0^2,^6.0^8,^12.0^13,^18]pentacosa-1(24),2(6),4,8,11,13,15,17,21(25),22-decaen-22-amine] | 50 to 500 | 50 to 500 | < 50 | 50 to 500 | > 500 | 0.1 to 50 | 0.1 to 50 | 50 to 500 | > 500 | > 500 | A (bin A for very high selectivity, ratio >30-fold) | A (bin A for very high selectivity, ratio >30-fold) | B (bin B for high selectivity, ratio >10-fold) | A (bin A for very high selectivity, ratio >30-fold)
3 | C[C@H]1Oc2cc(cnc2N)-c2c(cnn2C2CCC2)Cn2ncnc2-c2ccc(F)cc21 [Example 39, (19R)-3-cyclobutyl-16-fluoro-19-methyl-20-oxa-3,4,8,9,11,23-hexaazapentacyclo[19.3.1.0^2,^6.0^8,^12.0^13,^18]pentacosa-1(24),2(6),4,9,11,13,15,17,21(25),22-decaen-22-amine] | < 50 | < 50 | < 50 | < 50 | > 500 | 0.1 to 50 | 0.1 to 50 | 0.1 to 50 | 50 to 500 | > 500 | A (bin A for very high selectivity, ratio >30-fold) | A (bin A for very high selectivity, ratio >30-fold) | B (bin B for high selectivity, ratio >10-fold) | A (bin A for very high selectivity, ratio >30-fold)
